Values of other authors as cited in US8968778B2, “Threo-DOPS controlled release formulation” (Lundbeck NA Ltd., priority 2003, dated 2015).

Compound	Specific uptake in microvessel preparations (microvessel preparations)	Time that increased plasma levels of both molecules (L-threo-DOPS and NE) remain (after oral administration of L-threo-DOPS)	Time of peak plasma levels of L-threo-DOPS (after oral ingestion)	Time of peak NE levels (after oral ingestion of L-threo-DOPS, norepinephrine in plasma)
N[C@H](C(=O)O)[C@H](O)c1ccc(O)c(O)c1 [threo-DOPS, Threo-3-(3,4-dihydroxyphenyl)serine]	Specific uptake	–	–	–
N[C@H](C(=O)O)[C@H](O)c1ccc(O)c(O)c1 [L-threo-DOPS]	–	at least 12 hours	3 h	5 h
